# Where two headings read alike, the source gives them in different places.
# What was measured:
# [1] = target: T1, PBP3 from Pseudomonas aeruginosa (PAO1) (Pseudomonas aeruginosa, UniProt G3XD46); assay: Bocillin-FL fluorescence polarization competition binding, P. aeruginosa PBP3; conditions: Binding affinity to P. aeruginosa PBP3; fluorescence polarization competition binding assay using Bocillin-FL; read-out: P. aeruginosa PBP3 Potency
# T1 construct: made in house
# Method in brief: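 Purified PBP was preincubated with inhibitor (E. coli PBP3 1.5 μM, 30 min; P. aeruginosa PBP3 0.75 μM, A. baumannii PBP3 0.2 μM and PBP1a 1 μM, 15 min), then Bocillin-FL (0.1 μM; 0.05 μM for PBP1a) added and FP read up to 60 min. EC50 = 50% loss of bound probe.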
# [2] = tested on: P. aeruginosa ATCC 27853; assay: microbe, parasite or virus in culture; format: cell-based; conditions: Pseudomonas aeruginosa, ATCC27853, read-out: Minimum inhibitory concentration, P. aeruginosa ATCC 27853
# [3] = tested on: P. aeruginosa CDC-0095; assay: microbe, parasite or virus in culture; format: cell-based; conditions: Pseudomonas aeruginosa, CDC0095, read-out: Minimum inhibitory concentration, P. aeruginosa CDC-0095
# [4] = tested on: A. baumannii CDC-0036; assay: microbe, parasite or virus in culture; format: cell-based; conditions: Acinetobacter baumannii, CDC0036, read-out: MIC, A. baumannii CDC-0036
# [5] = tested on: A. baumannii CDC-0045; assay: microbe, parasite or virus in culture; format: cell-based; conditions: Acinetobacter baumannii, CDC0045, read-out: MIC, A. baumannii CDC-0045
# [6] = tested on: B. thailandensis ATCC 700388; assay: microbe, parasite or virus in culture; format: cell-based; conditions: Burkholderia thailandensis, ATCC700388, read-out: Minimum inhibitory concentration (MIC), B. thailandensis ATCC 700388
# [7] = tested on: B. humptydooensis ATCC BAA-2767; assay: microbe, parasite or virus in culture; format: cell-based; conditions: Burkholderia humptydooensis, ATCCBAA2767, read-out: Minimum inhibitory concentration (MIC), B. humptydooensis ATCC BAA-2767
# [8] = tested on: P. aeruginosa CDC-0110; assay: microbe, parasite or virus in culture; format: cell-based; conditions: Pseudomonas aeruginosa, CDC0110, read-out: Minimum inhibitory concentration, P. aeruginosa CDC-0110
# [9] = tested on: N. gonorrhoeae FA1090; assay: Liquid broth MIC in Fastidious broth; conditions: Neisseria gonorrhoeae
# [10] = tested on: N. gonorrhoeae WHO G; assay: Liquid broth MIC in Fastidious broth; conditions: Neisseria gonorrhoeae
# [11] = tested on: N. gonorrhoeae WHO L; assay: Liquid broth MIC in Fastidious broth; conditions: Neisseria gonorrhoeae
# [12] = tested on: N. gonorrhoeae WHO Q; assay: Liquid broth MIC in Fastidious broth; conditions: Neisseria gonorrhoeae
# [13] = FA1090, read-out: Minimum Inhibitory Concentration (MIC), N. gonorrhoeae FA 1090
# [14] = read-out: Minimum Inhibitory Concentration (MIC), N. gonorrhoeae WHO G
# [15] = read-out: Minimum Inhibitory Concentration (MIC), N. gonorrhoeae WHO L
# [16] = read-out: Minimum Inhibitory Concentration (MIC), N. gonorrhoeae WHO Q
# [17] = FA1090, read-out: Minimum Inhibitory Concentration, FA 1090
# [18] = read-out: Minimum Inhibitory Concentration, WHO G
# [19] = read-out: Minimum Inhibitory Concentration, WHO L
# [20] = read-out: Minimum Inhibitory Concentration, WHO Q
# T1 sequence (G3XD46 whole entry): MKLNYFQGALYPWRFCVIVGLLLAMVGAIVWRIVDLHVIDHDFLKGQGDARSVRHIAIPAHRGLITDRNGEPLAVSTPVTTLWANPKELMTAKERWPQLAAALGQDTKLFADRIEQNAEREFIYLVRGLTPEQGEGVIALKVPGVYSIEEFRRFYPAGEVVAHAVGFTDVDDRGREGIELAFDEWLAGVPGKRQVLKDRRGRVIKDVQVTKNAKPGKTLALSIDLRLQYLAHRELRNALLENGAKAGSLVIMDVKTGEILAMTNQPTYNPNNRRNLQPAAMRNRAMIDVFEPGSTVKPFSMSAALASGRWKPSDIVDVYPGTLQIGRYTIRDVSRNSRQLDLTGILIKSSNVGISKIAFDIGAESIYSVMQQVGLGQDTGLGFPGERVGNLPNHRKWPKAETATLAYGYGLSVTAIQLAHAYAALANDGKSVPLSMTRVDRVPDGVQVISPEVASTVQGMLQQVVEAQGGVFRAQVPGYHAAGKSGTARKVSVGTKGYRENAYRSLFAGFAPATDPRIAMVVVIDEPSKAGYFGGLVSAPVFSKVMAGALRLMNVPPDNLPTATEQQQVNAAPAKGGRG
structure (smiles),measurement,setting,value
"CN(CCN1CCN(C(=O)N[C@@H](C(=O)N[C@H]2Cc3ccc(F)c(C(=O)O)c3OB2O)c2cc(F)c(O)c(O)c2Cl)C(=O)C1=O)Cc1nccs1 [Example 200, (R)-3-((R)-2-(2-chloro-5-fluoro-3,4-dihydroxyphenyl)-2-(4-(2-(methyl(thiazol-2-ylmethyl)amino)ethyl)-2,3-dioxopiperazine-1-carboxamido)acetamido)-7-fluoro-2-hydroxy-3,4-dihydro-2H-benzo[e][1,2]oxaborinine-8-carboxylic acid]",IC50,[1],< 10 µM
same,MIC,[2],< 1 µg/mL
same,MIC,[3],< 1 µg/mL
same,MIC,[4],2 to 4 µg/mL
same,MIC,[5],< 1 µg/mL
same,MIC,[6],< 1 µg/mL
same,MIC,[7],< 1 µg/mL
same,MIC,[8],< 1 µg/mL
same,MIC,[9]; [13],1 to 2 µg/mL
same,MIC,[10]; [14],4 to 8 µg/mL
same,MIC,[11]; [15],> 64 µg/mL
same,MIC,[12]; [16],16 to 32 µg/mL
"O=C(O)c1c(F)ccc2c1OB(O)[C@@H](NC(=O)C(NC(=O)N1CCN(CCNC(=O)[C@@H]3CCCN3)C1=O)c1cc(F)c(O)c(O)c1Cl)C2 (stereo partly drawn) [Example 248, (3R)-3-(2-(2-chloro-5-fluoro-3,4-dihydroxyphenyl)-2-(2-oxo-3-(2-((S)-pyrrolidine-2-carboxamido)ethyl)imidazolidine-1-carboxamido)acetamido)-7-fluoro-2-hydroxy-3,4-dihydro-2H-benzo[e][1,2]oxaborinine-8-carboxylic acid]",IC50,[1],10 to 50 µM
same,MIC,[2],2 to 4 µg/mL
same,MIC,[3],8 to 16 µg/mL
same,MIC,[4],2 to 4 µg/mL
same,MIC,[5],< 1 µg/mL
same,MIC,[6],2 to 4 µg/mL
same,MIC,[7],< 1 µg/mL
same,MIC,[8],< 1 µg/mL
same,MIC,[9]; [17],4 to 8 µg/mL
same,MIC,[10]; [18],16 to 32 µg/mL
same,MIC,[11]; [19],> 64 µg/mL
same,MIC,[12]; [20],16 to 32 µg/mL
"O=C(NCCCS(=O)(=O)N1CCN(C(=O)NC(C(=O)N[C@H]2Cc3ccc(F)c(C(=O)O)c3OB2O)c2cc(F)c(O)c(O)c2Cl)C1=O)c1ccc(O)cc1 (stereo partly drawn) [Example 269, (3R)-3-(2-(2-chloro-5-fluoro-3,4-dihydroxyphenyl)-2-(3-((3-(4-hydroxybenzamido)propyl)sulfonyl)-2-oxoimidazolidine-1-carboxamido)acetamido)-7-fluoro-2-hydroxy-3,4-dihydro-2H-benzo[e][1,2]oxaborinine-8-carboxylic acid]",IC50,[1],< 10 µM
same,MIC,[2],2 to 4 µg/mL
same,MIC,[3],8 to 16 µg/mL
same,MIC,[4],8 to 16 µg/mL
same,MIC,[5],< 1 µg/mL
same,MIC,[6],> 128 µg/mL
same,MIC,[7],> 128 µg/mL
same,MIC,[8],8 to 16 µg/mL
same,MIC,[9]; [17],4 to 8 µg/mL
same,MIC,[10]; [18],16 to 32 µg/mL
same,MIC,[11]; [19],> 64 µg/mL
same,MIC,[12]; [20],16 to 32 µg/mL
"O=C(NCCN1CCN(C(=O)NC(C(=O)N[C@H]2Cc3ccc(F)c(C(=O)O)c3OB2O)c2cc(F)c(O)c(O)c2Cl)C(=O)C1=O)Nc1cccc(O)c1 (stereo partly drawn) [Example 220, (3R)-3-(2-(2-chloro-5-fluoro-3,4-dihydroxyphenyl)-2-(4-(2-(3-(3-hydroxyphenyl)ureido)ethyl)-2,3-dioxopiperazine-1-carboxamido)acetamido)-7-fluoro-2-hydroxy-3,4-dihydro-2H-benzo[e][1,2]oxaborinine-8-carboxylic acid]",IC50,[1],< 10 µM
same,MIC,[2],2 to 4 µg/mL
same,MIC,[3],8 to 16 µg/mL
same,MIC,[4],8 to 16 µg/mL
same,MIC,[5],2 to 4 µg/mL
same,MIC,[6],8 to 16 µg/mL
same,MIC,[7],32 to 64 µg/mL
same,MIC,[8],< 1 µg/mL
same,MIC,[9]; [13],1 to 2 µg/mL
same,MIC,[10]; [14],4 to 8 µg/mL
same,MIC,[11]; [15],> 64 µg/mL
same,MIC,[12]; [16],> 64 µg/mL
"O=C(NCCN1CCN(C(=O)NC(C(=O)N[C@H]2Cc3ccc(F)c(C(=O)O)c3OB2O)c2cc(F)c(O)c(O)c2Cl)C1=O)c1cccc(O)c1 (stereo partly drawn) [Example 244, (3R)-3-(2-(2-chloro-5-fluoro-3,4-dihydroxyphenyl)-2-(3-(2-(3-hydroxybenzamido)ethyl)-2-oxoimidazolidine-1-carboxamido)acetamido)-7-fluoro-2-hydroxy-3,4-dihydro-2H-benzo[e][1,2]oxaborinine-8-carboxylic acid]",IC50,[1],< 10 µM
same,MIC,[2],2 to 4 µg/mL
same,MIC,[3],32 to 64 µg/mL
same,MIC,[4],2 to 4 µg/mL
same,MIC,[5],2 to 4 µg/mL
same,MIC,[6],> 128 µg/mL
same,MIC,[7],2 to 4 µg/mL
same,MIC,[8],2 to 4 µg/mL
same,MIC,[9]; [13],4 to 8 µg/mL
same,MIC,[10]; [14],16 to 32 µg/mL
same,MIC,[11]; [15],> 64 µg/mL
same,MIC,[12]; [16],> 64 µg/mL
"O=C(NCCCN1CCN(C(=O)N[C@@H](C(=O)N[C@H]2Cc3ccc(F)c(C(=O)O)c3OB2O)c2cc(F)c(O)c(O)c2Cl)C(=O)C1=O)c1cccnc1 [Example 210, (R)-3-((R)-2-(2-chloro-5-fluoro-3,4-dihydroxyphenyl)-2-(4-(3-(nicotinamido)propyl)-2,3-dioxopiperazine-1-carboxamido)acetamido)-7-fluoro-2-hydroxy-3,4-dihydro-2H-benzo[e][1,2]oxaborinine-8-carboxylic acid]",IC50,[1],< 10 µM
same,MIC,[2],2 to 4 µg/mL
same,MIC,[3],< 1 µg/mL
same,MIC,[4],2 to 4 µg/mL
same,MIC,[5],< 1 µg/mL
same,MIC,[6],< 1 µg/mL
same,MIC,[7],< 1 µg/mL
same,MIC,[8],< 1 µg/mL
same,MIC,[9]; [13],< 1 µg/mL
same,MIC,[10]; [14],4 to 8 µg/mL
same,MIC,[11]; [15],> 64 µg/mL
same,MIC,[12]; [16],> 64 µg/mL
"O=C(NCCS(=O)(=O)N1CCN(C(=O)NC(C(=O)N[C@H]2Cc3ccc(F)c(C(=O)O)c3OB2O)c2cc(F)c(O)c(O)c2Cl)C1=O)c1cccnc1 (stereo partly drawn) [Example 262, (3R)-3-(2-(2-chloro-5-fluoro-3,4-dihydroxyphenyl)-2-(3-((2-(nicotinamido)ethyl)sulfonyl)-2-oxoimidazolidine-1-carboxamido)acetamido)-7-fluoro-2-hydroxy-3,4-dihydro-2H-benzo[e][1,2]oxaborinine-8-carboxylic acid]",IC50,[1],< 10 µM
same,MIC,[2],< 1 µg/mL
same,MIC,[3],2 to 4 µg/mL
same,MIC,[4],< 1 µg/mL
same,MIC,[5],< 1 µg/mL
same,MIC,[6],< 1 µg/mL
same,MIC,[7],< 1 µg/mL
same,MIC,[8],< 1 µg/mL
same,MIC,[9]; [17],4 to 8 µg/mL
same,MIC,[10]; [18],16 to 32 µg/mL
same,MIC,[11]; [19],> 64 µg/mL
same,MIC,[12]; [20],16 to 32 µg/mL
"O=C(NCCCS(=O)(=O)N1CCN(C(=O)NC(C(=O)N[C@H]2Cc3ccc(F)c(C(=O)O)c3OB2O)c2cc(F)c(O)c(O)c2Cl)C1=O)c1cccnc1 (stereo partly drawn) [Example 273, (3R)-3-(2-(2-chloro-5-fluoro-3,4-dihydroxyphenyl)-2-(3-((3-(nicotinamido)propyl)sulfonyl)-2-oxoimidazolidine-1-carboxamido)acetamido)-7-fluoro-2-hydroxy-3,4-dihydro-2H-benzo[e][1,2]oxaborinine-8-carboxylic acid]",IC50,[1],< 10 µM
same,MIC,[2],2 to 4 µg/mL
same,MIC,[3],32 to 64 µg/mL
same,MIC,[4],2 to 4 µg/mL
same,MIC,[5],< 1 µg/mL
same,MIC,[6],2 to 4 µg/mL
same,MIC,[7],2 to 4 µg/mL
same,MIC,[8],< 1 µg/mL
same,MIC,[9]; [17],4 to 8 µg/mL
same,MIC,[10]; [18],16 to 32 µg/mL
same,MIC,[11]; [19],> 64 µg/mL
same,MIC,[12]; [20],16 to 32 µg/mL

# Reference: patent US20240270762A1, “PENICILLIN-BINDING PROTEIN INHIBITORS” (priority 2021, published 2024)
